Activity calls are given as the source filed them. No cut-off for these calls is given here.
What was measured:
[1] = molecular target: T1, [Pyruvate dehydrogenase (acetyl-transferring)] kinase isozyme 1, mitochondrial (Homo sapiens, UniProt Q15118); experiment: Inhibition of PDK1 (unknown origin) at 1.5 uM incubated for 30 mins followed by substrate addition measured after 60 mins in presence of ATP by ADP-Glo luminescent assay relative to control; conditions: time 90.0 min, values are per cent of control
[2] = molecular target: [Pyruvate dehydrogenase (acetyl-transferring)] kinase isozyme 2, mitochondrial (Homo sapiens) (UniProt Q15119); experiment: Inhibition of PDK2 (unknown origin) at 1.5 uM incubated for 30 mins followed by substrate addition measured after 60 mins in presence of ATP by ADP-Glo luminescent assay relative to control; conditions: time 90.0 min
PSN1 [3] = experiment: Antiproliferative activity against human PSN1 cells expressing KRAS mutant cultured as 2D spheroids assessed as inhibition of cell growth measured after 72 hrs by MTT assay; format: functional, cell-based; conditions: PSN1, 72 h
BXPC-3 [4] = experiment: Antiproliferative activity against human BXPC-3 cells expressing wild type KRAS cultured as 3D spheroids assessed as inhibition of cell growth measured after 72 hrs by MTT assay; format: functional, cell-based; conditions: BXPC-3, 72 h
BXPC-3 [5] = experiment: Antiproliferative activity against human BXPC-3 cells expressing wild type KRAS cultured as 2D spheroids assessed as inhibition of cell growth measured after 72 hrs by MTT assay; format: functional, cell-based; conditions: BXPC-3, 72 h
PSN1 [6] = experiment: Antiproliferative activity against human PSN1 cells expressing KRAS mutant cultured as 3D spheroids assessed as inhibition of cell growth measured after 72 hrs by MTT assay; format: functional, cell-based; conditions: PSN1, 72 h
[7] = molecular target: [Pyruvate dehydrogenase (acetyl-transferring)] kinase isozyme 3, mitochondrial (Homo sapiens) (UniProt Q15120); experiment: Inhibition of PDK3 (unknown origin) at 1.5 uM incubated for 30 mins followed by substrate addition measured after 60 mins in presence of ATP by ADP-Glo luminescent assay relative to control; conditions: time 90.0 min
PSN1 [8] = experiment: Inhibition of PDK in human PSN1 cells expressing KRAS mutant assessed as increase in cellular oxygen consumption at IC50 incubated for 60 mins by fluorescence based analysis; format: cell-based
Heat shock protein HSP90 = Heat shock protein HSP90 (Homo sapiens, UniProt P07900+P08238); experiment: Inhibition of human recombinant HSP90 at 1.5 uM incubated for 30 mins by fluorescence polarization based analysis relative to control; format: protein assay
PSN1 [9] = experiment: Inhibition of PDK in human PSN1 cells expressing KRAS mutant assessed as decrease in lactate production levels at IC50 incubated for 60 mins by colorimetric analysis; format: cell-based
PSN1 [10] = experiment: Induction of mitochondrial membrane potential loss in human PSN1 cells at IC50 incubated for 60 mins by fluorescence based analysis; format: functional
PSN1 [11] = experiment: Induction of reactive oxygen species production in human PSN1 cells assessed as increase in cellular hydrogen peroxide formation at 5 uM by CM-H2DCFDA staining based analysis; format: functional, cell-based
[12] = molecular target: T1, [Pyruvate dehydrogenase (acetyl-transferring)] kinase isozyme 1, mitochondrial; experiment: Inhibition of PDK1 (unknown origin) incubated for 30 mins followed by substrate addition measured after 60 mins in presence of ATP by ADP-Glo luminescent assay
PSN1 [13] = experiment: Induction of reactive oxygen species production in human PSN1 cells assessed as decrease in total cellular sulfhydryls level at IC50 incubated for 24 hrs by DTNB reagent based spectrophotometric analysis; format: functional, cell-based
[14] = molecular target: [Pyruvate dehydrogenase (acetyl-transferring)] kinase isozyme 4, mitochondrial (Homo sapiens) (UniProt Q16654); experiment: Inhibition of PDK4 (unknown origin) at 1.5 uM incubated for 30 mins followed by substrate addition measured after 60 mins in presence of ATP by ADP-Glo luminescent assay relative to control; conditions: time 90.0 min
PSN1 [15] = experiment: Downregulation of PDHA1 phosphorylation in human PSN1 cells at IC50 incubated for 24 hrs by ELISA assay; format: functional, cell-based

[Pyruvate dehydrogenase (acetyl-transferring)] kinase isozyme 3, mitochondrial (Homo sapiens), sequence (Q15120 whole entry, looked up): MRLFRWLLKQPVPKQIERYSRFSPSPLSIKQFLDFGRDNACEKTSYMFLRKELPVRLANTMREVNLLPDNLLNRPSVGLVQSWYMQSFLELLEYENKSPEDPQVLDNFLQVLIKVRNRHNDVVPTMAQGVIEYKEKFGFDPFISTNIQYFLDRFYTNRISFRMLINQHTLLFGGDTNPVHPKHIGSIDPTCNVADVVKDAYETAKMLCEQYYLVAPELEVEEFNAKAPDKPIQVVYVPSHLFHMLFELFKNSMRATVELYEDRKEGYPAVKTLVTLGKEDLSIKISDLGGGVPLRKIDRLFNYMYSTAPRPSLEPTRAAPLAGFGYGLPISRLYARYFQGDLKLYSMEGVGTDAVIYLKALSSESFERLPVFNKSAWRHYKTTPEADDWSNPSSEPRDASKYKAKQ
T1 sequence (Q15118 whole entry): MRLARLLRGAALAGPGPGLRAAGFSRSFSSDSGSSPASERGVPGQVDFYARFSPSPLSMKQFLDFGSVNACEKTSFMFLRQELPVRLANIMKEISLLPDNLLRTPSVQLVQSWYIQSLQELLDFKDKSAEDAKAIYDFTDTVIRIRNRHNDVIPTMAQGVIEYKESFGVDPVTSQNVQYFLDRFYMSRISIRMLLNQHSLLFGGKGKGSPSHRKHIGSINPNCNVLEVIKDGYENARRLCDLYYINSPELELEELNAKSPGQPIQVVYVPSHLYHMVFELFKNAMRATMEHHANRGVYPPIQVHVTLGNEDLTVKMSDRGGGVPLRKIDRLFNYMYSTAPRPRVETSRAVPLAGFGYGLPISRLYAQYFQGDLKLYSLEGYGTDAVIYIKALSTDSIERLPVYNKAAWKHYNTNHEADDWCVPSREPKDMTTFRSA
[Pyruvate dehydrogenase (acetyl-transferring)] kinase isozyme 4, mitochondrial (Homo sapiens), sequence (Q16654 whole entry, looked up): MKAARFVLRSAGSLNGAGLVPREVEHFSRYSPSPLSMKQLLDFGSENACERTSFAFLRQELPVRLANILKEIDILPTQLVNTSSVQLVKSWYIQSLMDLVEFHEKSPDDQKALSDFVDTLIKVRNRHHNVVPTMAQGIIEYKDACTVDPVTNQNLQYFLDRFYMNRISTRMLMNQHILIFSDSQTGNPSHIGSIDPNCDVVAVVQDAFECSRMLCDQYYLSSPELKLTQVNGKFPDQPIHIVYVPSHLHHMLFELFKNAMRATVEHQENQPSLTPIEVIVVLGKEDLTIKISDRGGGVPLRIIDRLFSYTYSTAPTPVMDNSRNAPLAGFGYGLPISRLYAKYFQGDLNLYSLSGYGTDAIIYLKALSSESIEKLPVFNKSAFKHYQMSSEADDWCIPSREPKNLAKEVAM

| SMILES | residual activity [1] | inhibition [2] | IC50 (PSN1 [3]) | IC50 (BXPC-3 [4]) | IC50 (BXPC-3 [5]) | IC50 (PSN1 [6]) | inhibition [7] | inhibition (PSN1 [8]) | inhibition (Heat shock protein HSP90) | inhibition (PSN1 [9]) | Activity (PSN1 [10]) | Activity (PSN1 [11]) | IC50 [12] | Activity (PSN1 [13]) | inhibition [14] | Activity (PSN1 [15]) |
| --- | --- | --- | --- | --- | --- | --- | --- | --- | --- | --- | --- | --- | --- | --- | --- | --- |
| Cn1cc(-c2nnc(N)nc2-c2c[nH]c3ccccc23)c2cc(Br)cnc21 | 40% | 100% | 4.6 µM | 34.2 µM | 3.2 µM | 31.8 µM | – | – | – | – | – | – | – | – | – | – |
| Cn1cc(-c2nnc(N)nc2-c2c[nH]c3ccc(Br)cc23)c2cccnc21 | 40% | 100% | 2.9 µM | 25.9 µM | 2.3 µM | 20.9 µM | 100% | – | – | – | – | – | – | – | – | – |
| COc1ccc2[nH]cc(-c3nnc(N)nc3-c3c[nH]c4ncc(Br)cc34)c2c1 | 40% | 100% | 3.4 µM | 27.5 µM | 3.2 µM | 22.1 µM | – | – | – | – | – | – | – | – | – | – |
| Cn1cc(-c2nnc(N)nc2-c2c[nH]c3ccc(F)cc23)c2cccnc21 | 40% | 100% | 1.6 µM | 14.6 µM | 1.6 µM | 16 µM | 100% | – | – | – | – | – | – | – | – | – |
| Cn1cc(-c2nc(N)nnc2-c2c[nH]c3ccc(Br)cc23)c2cc(Br)cnc21 | 0% | 100% | 1.1 µM | 6 µM | 0.7 µM | 24.2 µM | – | Active | 40% | Active | Active | Active | 0.06 µM | Active | 0% | Active |
| Nc1nnc(-c2c[nH]c3ccc(F)cc23)c(-c2c[nH]c3ncc(Br)cc23)n1 | 40% | 100% | 1.3 µM | 14.9 µM | 1.7 µM | 19.2 µM | 100% | – | – | – | – | – | – | – | – | – |
| Nc1nnc(-c2c[nH]c3ccccc23)c(-c2c[nH]c3ncccc23)n1 | 40% | 100% | 1.8 µM | 23.2 µM | 1.5 µM | 14.3 µM | 100% | – | – | – | – | – | – | – | – | – |
| O=C(O)C(Cl)Cl [DICHLOROACETIC ACID] | – | – | > 1000 µM | > 1000 µM | > 1000 µM | > 1000 µM | – | – | – | – | – | – | – | – | – | – |
| COc1ccc2[nH]cc(-c3nc(N)nnc3-c3cn(C)c4ncc(Br)cc34)c2c1 | 40% | 100% | 2.6 µM | 6.3 µM | 0.3 µM | 8.4 µM | 100% | – | 0% | – | – | – | – | – | – | – |
| Cn1cc(-c2nc(N)nnc2-c2c[nH]c3ccccc23)c2cccnc21 | 40% | 100% | 2.1 µM | 15.5 µM | 1.9 µM | 13.2 µM | – | – | – | – | – | – | – | – | – | – |
| Cn1cc(-c2nc(N)nnc2-c2c[nH]c3ccc(F)cc23)c2cc(Br)cnc21 | 60% | – | 2.3 µM | 5 µM | 0.2 µM | 8.3 µM | – | Active | 60% | Active | Active | Active | 0.15 µM | Active | 60% | Active |
| O=C(c1ccccc1)C(Cl)Cl | – | – | 36.5 µM | 78.2 µM | 10.2 µM | 87.4 µM | – | Active | – | Active | – | – | > 100 µM | – | – | Active |
| COc1ccc2[nH]cc(-c3nc(N)nnc3-c3c[nH]c4ncccc34)c2c1 | 40% | 100% | 2.2 µM | 34.2 µM | 2.1 µM | 35.2 µM | 100% | – | – | – | – | – | – | – | – | – |
| Nc1nnc(-c2c[nH]c3ncccc23)c(-c2c[nH]c3ccc(Br)cc23)n1 | 40% | 100% | 1.6 µM | 16.4 µM | 1.8 µM | 15.1 µM | – | – | – | – | – | – | – | – | – | – |
| CCCCCC[C@H]1C(=O)O[C@H](C)[C@H](NC(=O)c2cccc(NC=O)c2O)C(=O)O[C@@H](C)[C@@H]1OC(=O)CC(C)C | – | – | – | – | – | – | – | – | – | – | – | Active | – | – | – | – |
